In assay [1] the test system is MCF10A cells. Briefly: Chemical inhibition of Latrunculin-A-enhanced microtubule protrusions in suspended cells. It counts as cell-based, human. Particulars: MCF10A in suspension, then LA 5 μM one hour; sodium orthovanadate 1 mM, S-Trityl-L-Cysteine 100 μM, TDZD-8 20 μM. Here is the method: MCF10A cells were placed into suspension in the presence of the indicated chemical inhibitors targeted at specific signaling pathways or the corresponding vehicle controls. Cells were then treated with the actin polymerization inhibitor, Latrunculin-A (LA, 5 μM) for one hour to enhance protrusions. […] Thus, protrusions can be reduced by chemical inhibition of specific signaling proteins.

Assay [2] has as its system microtentacles. Briefly: Microtentacle frequency after pretreatment with Okadaic Acid or Calyculin-A. It counts as cell-based. The conditions noted are these: pretreated 1 h, suspended with or without Latrunculin-A. The procedure: In FIG. 35, cells were pretreated for 1 h with DMEM media alone (Control) or the indicated concentrations of either Okadaic Acid (OKA) […] or Calyculin-A (Cal-A) to promote vimentin disassembly. Cells were then suspended by trypsinization with or without addition of Latrunculin-A (LA) to enhance microtentacle frequency.

Assay [3] relates to MCF10A cells. Briefly: Protrusions in suspended cells treated with cytoskeletal inhibitors (MCF10A). The format is cell-based, human. Particulars: MCF10A, 15 minutes of suspension; Latrunculin-A 5 μM, Colchicine 1 μM. The procedure:
(§1) In FIG. 2A, after 15 minutes of suspension, protrusions in EpH4 and MCF10A cells are quite small (Control, white arrows). […] In FIG. 2B, populations of live, suspended cells were scored blindly for two or more protrusions longer than the cell radius. Each bar represents the mean+S.D. for three experiments in which at least 100 single cells were counted.
(§2) In order to initially characterize the cytoskeletal mechanism underlying these protrusions, suspended cells were treated with inhibitors of actin and tubulin polymerization (FIG. 2). After 15 minutes of suspension, the protrusions in untreated EpH4 or MCF10A cells remain fairly short (FIG. 2, white arrows). These early protrusions can often be difficult to detect with phase-contrast microscopy, due to interfering light refraction from the plasma membrane. […] Protrusions were more easily visible with immunofluorescence than phase contrast microscopy (FIG. 3, white arrows). Although actin filament staining was generally low along the length of the protrusion, dense points of actin were often found at the end of protrusions (FIG. 3, arrowheads).
The nontumorigenic human mammary epithelial cell line (MCF10A) or the indicated human breast tumor cell lines were grown in suspension for 30-60 minutes, and protrusions were counted in random fields with phase-contrast microscopy. Values represent the mean±S.D. of three experiments in which at least 100 cells were counted. […] This effect was most apparent in the highly metastatic but exemplary Bt-474 and MDA-MB-231 cells (pictured, black arrows). The exemplary MCF10A cells show far fewer and shorter protrusions at the same time point (pictured, white arrows). Such protrusions are not observed in attached cells.

Assay [4] relates to EpH4 cells. In words: Protrusions in suspended cells treated with cytoskeletal inhibitors (EpH4). It counts as cell-based, mouse. Particulars: EpH4, 15 minutes of suspension; Latrunculin-A 5 μM, Colchicine 1 μM. Here is the method: as §1
EpH4 cells were suspended in either DMEM (Control) or media containing 5 μM Latrunculin-A (LA), 1 μM Colchicine or the combination of both drugs for 30 minutes. Cells were then spun onto glass coverslips and fluorescently stained for α-tubulin (green) and polymerized actin (red). Protrusions that are difficult to see by phase contrast are easily discernible with immunostaining for α-tubulin (white arrows). Protrusions contain little polymerized actin, except at points of concentration, which are often at the end (arrowhead).
EpH4 and B19 cells were suspended over 2% agarose coated plates to prevent attachment in either serum-free DMEM or media containing. Latrunculin-A (5 μM) to enhance protrusions. For co-staining of α-tubulin and actin, suspended cells were then centrifuged onto poly-L-lysine coated coverslips (280 g×5 min), fixed in 3.7% formaldehyde in PBS for 10 min, and permeablized with 0.1% Triton X-100 in PBS. Adhered cells were then stained for 1 hr at room temperature using FITC-conjugated anti-α-tubulin (1:200; Sigma), Alexa-594 phalloidin (1:100; Molecular Probes), and Hoescht 33342 (1:5000; Sigma).
as §2

For assay [5], the system named is EpH4-Bcl2 cells. In words: Cell-substratum attachment assay. It counts as cell-based, mouse. Particulars: for attachment of cells to tissue culture surfaces: EpH4-Bcl2 (B19), 1 hr in suspension with inhibitor, then replated. Here is the method: (§3) In FIG. 6A, EpH4-Bcl2 cells were suspended over agarose and treated with inhibitors as above. Following treatment, cells were plated into 0.3% methylcellulose media over agarose and the rate of cell-cell attachment was followed by Hoescht DNA staining. […] Similar results were found in three independent experiments. In FIG. 6B, EpH4-Bcl2 cells suspended over agarose for one hour in DMEM or DMEM containing LA (5 μM), Colchicine (1 μM), or the combination. Reattachment of these cells to either uncoated tissue culture plates or those pre-coated with laminin was followed by XTT cell viability assay. Values represent mean+S.D. of raw XTT values of three separate experiments.
Equivalent numbers of B19 cells were suspended over 6-well plates coated in 2% agarose in serum-free media containing 5 μM Latrunculin-A (LA; BioMol, Plymouth Meeting, Pa.), 100 μM colchicine (Col; Sigma, St. Louis, Mo.), 5 μg/ml nocodazole (Noc), or 1 μg/ml vinblastine (VinB; Sigma) for a duration of 1 hr at 37° C. Cells were collected by centrifugation (1000 rpm×5 min) and drug containing media was aspirated. Cells were resuspended in EpH4 serum-containing growth media and aliquoted out into 24 wells (8 timepoints×3 replicates) of a 96-well clear bottom black plate. After plating, cells were allowed to attach for duration of 15 min, 45 min, 1.5 hr, 2 hr, 3 hr, 4 hr, 5 hr, and 24 hr at which point the media was aspirated from the replicate wells, washed twice in PBS, and fresh growth media was replaced at each timepoint. After 24 hr, all wells were aspirated and cells were incubated in growth media containing Hoescht 33342 (1:5000) for 30 min at 37° C. to label all attached cells. Fluorescence was measured using a Biotek Synergy HT Multi-Detection Microplate Reader (Winooski, Vt.) at excitation wavelength 360 nm and an emission filter of 460 nm followed by subsequent analysis using the KC4 Data Analysis software. The percentage of cell attachment for each treatment exposure was calculated as the RFU at each timepoint divided by the RFU at 24 h (maximum attachment). The standard deviations of triplicates at each timepoint are shown.
(§4) To determine if these microtubule protrusions influence the ability of cells to form attachments, the cells were treated with inhibitors of actin or tubulin polymerization and assessed both cell-cell and cell-substratum attachment (FIG. 6). […] Induction of such nonspecific attachment activity in detached mammary epithelial cells could promote tumor cell dissemination, particularly when apoptotic resistance allows this response to continue for extended periods.

Assay [6] deals with EpH4-Bcl2 cells. In words: Cell-cell attachment assay. The format is cell-based, mouse. Particulars: EpH4-Bcl2 in 0.3% methylcellulose over agarose, 5 hours. Here is the method: as §3
B19 cells were seeded onto 10 cm dishes until 80% confluency. The media was aspirated and cells were incubated in fresh growth media containing Hoescht 33342 (1:5000) for 30 min at 37° C. to label all attached cells. The cells were washed twice in PBS, detached by trypsinization, and an equivalent number of cells were resuspended in serum-free media containing 0.3% methylcellulose with either 5 μM Latrunculin A, 100 μM Colchicine, 1 μg/ml vinblastine, or 5 μg/ml nocodazole and plated over 2% agarose-coated 24-well plates. The progression of cell-cell adhesion over time was visualized by the EpiChemi3 Imaging System (UVP, Inc.; Upland, Calif.) using an excitation wavelength of 365 nm and a blue band pass filter. Images were obtained with an attached Hamamatsu CCD camera (Hamamatsu Photonics, Hamamatsu City, Japan) and analyzed with UVP Labworks Image Acquisition and Analysis Software v. 4.6.
as §4

The test system of assay [7] is detached mammary epithelial cells. Briefly: Protrusions of detached mammary epithelial cells, general statements. The format is cell-based, human and mouse. Here is the method: Time-lapse video microscopy of detached mammary epithelial cells detected the extension of long, dynamic protrusions of the plasma membrane, and the present inventors have characterized the cytoskeletal mechanism underlying this novel observation. […] This response may be relatively short-lived, in specific embodiments, since mammary epithelial cells die by apoptosis within about 24 hours in suspension. However, cell lines that resist apoptosis through expression of either Bcl-2 or Bcl-xL will persistently form protrusions. Previous studies by the inventors indicate that such apoptotically-resistant cell lines will not form tumors in mice and lie dormant in distant tissues, in specific embodiments of the invention. […] These microtubule processes can extend more than 3 times the cell diameter, and undergo a rapid probing motion more than once per second. Formation of these microtubule protrusions is necessary for efficient cell-cell and cell-substratum attachment. In particular embodiments of the invention, this inherent microtubule response in detached mammary epithelial cells provides at least some of the invasive characteristics of breast cancer, independent of any tumor-specific genetic alteration, for example.
Breast tumor cells enter the bloodstream long before the development of clinically evident metastasis. However, the early presence of such bloodborne cells predicts poor patient outcome. Nearly 90% of human breast tumors arise as carcinomas from mammary epithelial cells, so it is important to characterize how these cells respond to the detached conditions that they would experience in the bloodstream. In the present invention, mammary epithelial cell lines produce long and dynamic protrusions of the plasma membrane when detached. Although human and mouse mammary epithelial cell lines die by apoptosis within 16 hours of detachment, this protrusive response persists for days in cells overexpressing either Bcl-2 or Bcl-xL, for example. […] Since bloodborne metastasis depends on both cell-cell and cell-matrix attachment, microtubule-based protrusions in detached mammary epithelial cells provide a novel target that could influence the metastatic spread of breast tumors.
Detachment-induced increases in Glu-tubulin could promote plasma membrane protrusions of microtubules by preventing efficient capture at the actin cortex. […] Therefore, our current model is that detachment increases stabilized microtubules enriched in Glu-tubulin, while decreased actin polymerization simply promotes extension of these microtubule protrusions.

For `CCCCCC[C@@H]([C@@H](C)O)n1cnc2c(N)ncnc21` (racemic) [EHNA], the protrusions entry in assay [1] is given as “reduced protrusions, but these results were not statistically significant”.
As for `COC[C@@H]([C@H](O)[C@H](O)C(=O)NCC[C@H](C)c1nc(/C=C/C[C@@H]2O[C@]3(C[C@@H](O)[C@@H]2C)O[C@H]([C@H](C[C@H](O)[C@H](C)[C@H](O)[C@H](C)/C=C(C)/C(C)=C/C=C/C(C)=C\C#N)OC)[C@H](OP(=O)(O)O)C3(C)C)co1)N(C)C` [Calyculin-A], the microtentacles result in assay [2] is “reduce microtentacles significantly”; in assay [2] (listed as calyculin-A), “reduces microtentacles”.
Take `COc1cc2c(c(OC)c1OC)-c1ccc(OC)c(=O)cc1[C@@H](NC(C)=O)CC2` [Colchicine]: the protrusions result in assay [3] was “prevented protrusions”; in assay [4], “prevented protrusions”; in assay [7], “inhibited”. Also, in assay [5], the “attachment of cells to tissue culture surfaces” value (shortened to “attachment of cells”) is “significantly delayed attachment”. Also, in assay [5] (EpH4-Bcl2 suspended one hour, LA 5 μM, Colchicine 1 μM), the “cell-surface attachment to uncoated or laminin-coated plates (XTT)” value was “significantly prevents initial cell attachment”. Besides, the “cell-cell attachment (clustering)” value in assay [6] is “prevented efficient clustering”.
With `C=C1[C@@H](O)[C@@H]2O[C@]3(CC[C@H](/C=C/[C@@H](C)[C@@H]4CC(C)=C[C@@]5(O[C@H](C[C@@](C)(O)C(=O)O)CC[C@H]5O)O4)O3)CC[C@H]2O[C@@H]1[C@@H](O)C[C@H](C)[C@H]1O[C@@]2(CCCCO2)CC[C@H]1C` [Okadaic acid], the microtentacles result in assay [2] was “reduce microtentacles significantly”; in assay [2] (listed as okadaic acid), “reduces microtentacles”.
For the molecule `N[C@@H](CSC(c1ccccc1)(c1ccccc1)c1ccccc1)C(=O)O` [S-Trityl-L-Cysteine], the protrusions entry in assay [1] is given as “significantly reduces protrusions”.
For `CN[C@H]1CCc2cc(OC)c(OC)c(OC)c2-c2ccc(OC)c(=O)cc21` [colcemid], the protrusions entry in assay [7] is reported as “inhibited”.
Same read-out and setting: the same measure for `COc1ccc(CNc2nc(NCc3ccc(OC)cc3)c3ncn(C(C)C)c3n2)cc1` [myoseverin]: “inhibited”.
On to `COC(=O)Nc1nc2ccc(C(=O)c3cccs3)cc2[nH]1` [nocodazole], for which the “attachment of cells” value in assay [5] is reported as “significantly delayed attachment”. Further, the “cell-cell attachment (clustering)” value in assay [6] is “prevented efficient clustering”. The protrusions entry in assay [7] is “inhibited”.
As for `[Na+].[Na+].[Na+].[O]=[V]([O-])([O-])[O-]` [sodium orthovanadate], in assay [1], the protrusions result is recorded as “significantly reduces protrusions”.
On to `CC[C@]1(O)C[C@@H]2CN(CCc3c([nH]c4ccccc34)[C@@](C(=O)OC)(c3cc4c(cc3OC)N(C)[C@H]3[C@@](O)(C(=O)OC)[C@H](OC(C)=O)[C@]5(CC)C=CCN6CC[C@]43[C@@H]65)C2)C1` [vinblastine], for which the “attachment of cells” value in assay [5] is “significantly delayed attachment”. Further, in assay [6], the “cell-cell attachment (clustering)” value is “prevented efficient clustering”. The protrusions entry in assay [7] is recorded as “inhibited”.
For `CC[C@]1(O)C[C@H]2CN(CCc3c([nH]c4ccccc34)[C@@](C(=O)OC)(c3cc4c(cc3OC)N(C=O)[C@H]3[C@@](O)(C(=O)OC)[C@H](OC(C)=O)[C@]5(CC)C=CCN6CC[C@]43[C@@H]65)C2)C1` [vincristine], the protrusions entry in assay [7] is given as “inhibited”.

The values are drawn from patent US8193238B2, “Inhibition of microtubule protrusion in cancer cells” (University of Maryland, Baltimore, priority 2006, dated 2012).
